biological target: T1, Human Recombinant Matriptase 2 (Homo sapiens, UniProt Q8IU80); experiment: Matriptase 2 fluorescence based inhibition assay, Method A (100 mM TRIS pH 9, 1 mg/mL BSA); type: biochemical; details: 1 uM compound; Assay Used = A; read-out: Mar-2 % inhibition at 1 uM
T1 construct: purchased Enzo Life Sciences (an in-house preparation was also used) ALX-201-752-1
T1 sequence (Q8IU80 1-811): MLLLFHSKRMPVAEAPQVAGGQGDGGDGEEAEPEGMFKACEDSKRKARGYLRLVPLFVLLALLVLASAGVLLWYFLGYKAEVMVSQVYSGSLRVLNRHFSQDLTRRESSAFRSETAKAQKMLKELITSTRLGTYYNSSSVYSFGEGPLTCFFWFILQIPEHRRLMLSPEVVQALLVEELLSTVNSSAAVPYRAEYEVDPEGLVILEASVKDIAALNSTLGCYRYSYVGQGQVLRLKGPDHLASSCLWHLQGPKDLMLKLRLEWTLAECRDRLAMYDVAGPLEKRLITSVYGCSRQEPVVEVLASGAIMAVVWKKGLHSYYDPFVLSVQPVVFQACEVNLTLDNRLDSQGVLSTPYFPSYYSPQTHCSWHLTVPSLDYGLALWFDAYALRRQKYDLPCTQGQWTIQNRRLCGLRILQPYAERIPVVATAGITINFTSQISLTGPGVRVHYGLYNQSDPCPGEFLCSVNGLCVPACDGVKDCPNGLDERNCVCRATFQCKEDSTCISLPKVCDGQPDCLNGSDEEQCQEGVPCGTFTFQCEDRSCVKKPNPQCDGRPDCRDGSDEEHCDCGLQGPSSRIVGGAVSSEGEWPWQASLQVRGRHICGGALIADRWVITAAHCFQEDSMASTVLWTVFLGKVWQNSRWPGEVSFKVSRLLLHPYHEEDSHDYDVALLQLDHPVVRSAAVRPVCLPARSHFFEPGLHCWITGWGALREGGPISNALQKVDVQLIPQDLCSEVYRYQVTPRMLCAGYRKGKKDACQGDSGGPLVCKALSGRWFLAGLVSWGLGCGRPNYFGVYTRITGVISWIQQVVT
Method in brief: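 At 25° C in 100 mM TRIS pH 9 with 1 mg/mL BSA and 1% DMSO, compounds were preincubated 30 min with 7 nM commercial or 15 nM in-house protein before adding 100 μM Boc-Gln-Ala-Arg-7-amido-4-methyl coumarin. Fluorescence at 360/480 nm after 60 min; single points at 1 and 10 μM, IC50 by variable-slope nonlinear regression.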

| Compound | inhibition at 1 µM [%] |
| --- | --- |
| N=C(N)c1ccc2cc(C(=O)N[C@H]3CC[C@H](N)CC3)n(S(=O)(=O)c3ccc4ccccc4c3)c2c1 [Compound I-397] | 25 to 50 |
| N/C(=N\O)c1ccc2cc(C(=O)NCC3CCNCC3)n(Cc3ccc4ccccc4c3)c2c1 [Compound I-398, 6-(N′-hydroxycarbamimidoyl)-1-(naphthalen-2-ylmethyl)-N-(piperidin-4-ylmethyl)-1H-indole-2-carboxamide] | 0 to 25 |
| N/C(=N/O)c1ccc2cc(C(=O)N[C@H]3CC[C@H](N)CC3)n(Cc3cccc4ccccc34)c2c1 [Compound I-400] | 25 to 50 |
| COc1ccc2cc(Cn3c(C(=O)N[C@H]4CC[C@H](N)CC4)cc4ccc(/C(N)=N\O)cc43)ccc2c1 [Compound I-401] | 0 to 25 |

Further lines, results first:

| inhibition at 1 µM [%] | Compound |
| --- | --- |
| 0 to 25 | N/C(=N\O)c1ccc2cc(C(=O)N[C@H]3CC[C@H](N)CC3)n(Cc3ccc4ccccc4c3)c2c1 [Compound I-399] |
| 25 to 50 | N=C(N)c1ccc2cc(C(=O)NCC3CCNCC3)n(Cc3ccc4ccccc4c3)c2c1 [Compound I-406, 6-carbamimidoyl-1-(naphthalen-2-ylmethyl)-N-(piperidin-4-ylmethyl)-1H-indole-2-carboxamide] |
| 50 to 75 | COc1ccc2cc(Cn3c(C(=O)N[C@H]4CC[C@H](N)CC4)cc4ccc(C(=N)N)cc43)ccc2c1 [Compound I-408] |

same assay, conditions: at 1 uM; Assay Used = A; read-out: Mar-2 % inhibition at 1 uM

| Compound | inhibition at 1 µM [%] |
| --- | --- |
| N=C(N)c1ccc2c(N)c(C(=O)N3CCC(CCNC(=O)O)CC3)n(Cc3ccc(Oc4ccccc4)cc3)c2c1 [Compound I-347] | 0 to 25 |
| N=C(N)c1ccc2c(N)c(C(=O)N3CCC(CCN)CC3)n(CCS(=O)(=O)c3ccccc3)c2c1 [Compound I-349, 3-Amino-2-(4-(2-aminoethyl)piperidine-1-carbonyl)-1-(2-(phenylsulfonyl)ethyl)-1H-indole-6-carboximidamide] | 25 to 50 |
| N=C(N)c1ccc2c(Cl)c(C(=O)N3CCC(F)CC3)n(Cc3ccc(-c4ccccc4)cc3)c2c1 [Compound I-353, 1-([1,1′-Biphenyl]-4-ylmethyl)-3-chloro-2-(4-fluoropiperidine-1-carbonyl)-1H-indole-6-carboximidamide] | 0 to 25 |
| N=C(N)c1ccc2cc(C(=O)N3CCC(C(=O)NCCCN)CC3)n(Cc3ccc(C(F)(F)F)cc3)c2c1 [Compound I-356, N-(3-Aminopropyl)-1-(6-carbamimidoyl-1-(4-(trifluoromethyl)benzyl)-1H-indole-2-carbonyl)-piperidine-4-carboxamide] | 0 to 25 |
| N=C(N)c1ccc2cc(C(=O)N3CCC(C(=O)NCCCN)CC3)n(CCc3ccccc3)c2c1 [Compound I-358] | 25 to 50 |
| N=C(N)NCCC1CCN(C(=O)c2cc3ccc(C(=N)N)cc3n2Cc2ccc3ccccc3c2)CC1 [Compound I-360] | 25 to 50 |
| N=C(N)NCCC1CCN(C(=O)c2cc3ccc(C(=N)N)cc3n2Cc2ccc(-c3ccccc3)cc2)CC1 [Compound I-361] | 0 to 25 |
| N=C(N)c1ccc2cc(C(=O)N3CCc4ccccc4C3)n(Cc3cccc(NC(=O)CCN)c3)c2c1 [Compound I-365] | 0 to 25 |
| N=C(N)c1ccc2cc(C(=O)N3CCC(F)CC3)n(Cc3cccc(NC(=O)CCN)c3)c2c1 [Compound I-366] | 0 to 25 |
| N=C(N)c1ccc2cc(C(=O)N3CCC(F)(F)CC3)n(Cc3cccc(NC(=O)CCN)c3)c2c1 [Compound I-367] | 0 to 25 |
| N=C(N)c1ccc2cc(C(=O)N3CCC(F)(F)C3)n(Cc3cccc(NC(=O)CCN)c3)c2c1 [Compound I-369] | 0 to 25 |
| N=C(N)c1ccc2cc(C(=O)N3CCC(CCN)CC3)n(Cc3ccc(NC(=O)CCCN)cc3)c2c1 [Compound I-372] | 25 to 50 |
| N=C(N)c1ccc2cc(C(=O)N3CCC(F)(F)CC3)n(Cc3ccc(NC(=O)CCN)cc3)c2c1 [Compound I-374] | 0 to 25 |
| N=C(N)c1ccc2cc(C(=O)N3CC[C@H](F)C3)n(Cc3ccc(NC(=O)CCN)cc3)c2c1 [Compound I-375] | 0 to 25 |
| N=C(N)c1ccc2cc(C(=O)N3CCC(F)(F)C3)n(Cc3ccc(NC(=O)CCN)cc3)c2c1 [Compound I-376] | 0 to 25 |
| N=C(N)c1ccc2cc(C(=O)N3CCc4ccccc4C3)n(Cc3ccc(NC(=O)CCN)cc3)c2c1 [Compound I-378] | 0 to 25 |
| CCNC(=O)c1ccc(Cn2c(C(=O)N3CCC(F)(F)C3)cc3ccc(C(=N)N)cc32)cc1 [Compound I-385, 4-((6-Carbamimidoyl-2-(3,3-difluoropyrrolidine-1-carbonyl)-1H-indol-1-yl)methyl)-N-ethylbenzamide] | 0 to 25 |
| CNC(=O)c1ccc(Cn2c(C(=O)N3CCC(F)CC3)cc3ccc(C(=N)N)cc32)cc1 [Compound I-388] | 0 to 25 |
| CN(C)C(=O)c1ccc(Cn2c(C(=O)N3CCC(F)CC3)cc3ccc(C(=N)N)cc32)cc1 [Compound I-389] | 0 to 25 |
| CCNC(=O)c1ccc(Cn2c(C(=O)N3CCC(F)CC3)cc3ccc(C(=N)N)cc32)cc1 [Compound I-390] | 0 to 25 |
| N=C(N)c1ccc2cc(C(=O)N3CCC(F)(F)C3)n(Cc3ccc(C(=O)NCCN)cc3)c2c1 [Compound I-392] | 0 to 25 |
| NC(=O)c1ccc2cc(C(=O)N3CCc4ccccc4C3)n(Cc3ccc(-c4ccccc4)cc3)c2c1 [Compound I-394, 1-([1,1′-Biphenyl]-4-ylmethyl)-2-(1,2,3,4-tetrahydroisoquinoline-2-carbonyl)-1H-indole-6-carboxamide] | 0 to 25 |

Further lines, results first:

| inhibition at 1 µM [%] | Compound |
| --- | --- |
| 0 to 25 | N=C(N)c1ccc2c(N)c(C(=O)N3CCC(CCN)CC3)n(Cc3ccc(Oc4ccccc4)cc3)c2c1 [Compound I-348] |
| 0 to 25 | N=C(N)c1ccc2c(N)c(C(=O)N3CCC4CCCCC4C3)n(CCS(=O)(=O)c3ccccc3)c2c1 (stereo not shown) [Compound I-351] |
| 0 to 25 | N=C(N)c1ccc2c(N)c(C(=O)N3CCc4ccccc4C3)n(CCS(=O)(=O)c3ccccc3)c2c1 [Compound I-352] |
| 0 to 25 | N=C(N)c1ccc2c(Cl)c(C(=O)N3CCC(F)(F)C3)n(Cc3ccc(C(N)=O)cc3)c2c1 [Compound I-354] |
| 0 to 25 | N=C(N)c1ccc2c(Cl)c(C(=O)N3CCC(F)CC3)n(Cc3ccc(C(N)=O)cc3)c2c1 [Compound I-355] |
| 0 to 25 | N=C(N)c1ccc2cc(C(=O)N3CCC(C(=O)NCCN)CC3)n(CCc3ccccc3)c2c1 [Compound I-357] |
| 25 to 50 | N=C(N)NCCCNC(=O)C1CCN(C(=O)c2cc3ccc(C(=N)N)cc3n2Cc2ccc(C(F)(F)F)cc2)CC1 [Compound I-359, 1-(6-Carbamimidoyl-1-(4-(trifluoromethyl)benzyl)-1H-indole-2-carbonyl)-N-(3-guanidinopropyl)-piperidine-4-carboxamide] |
| 0 to 25 | N=C(N)c1ccc2cc(C(=O)N3CC[C@H](F)C3)n(Cc3cccc(NC(=O)CCN)c3)c2c1 [Compound I-368] |
| 0 to 25 | N=C(N)c1ccc2cc(C(=O)N3CCC(F)CC3)n(Cc3ccc(NC(=O)CCN)cc3)c2c1 [Compound I-373] |
| 0 to 25 | N=C(N)c1ccc2cc(C(=O)N3CCC(CF)CC3)n(Cc3ccc(NC(=O)CCN)cc3)c2c1 [Compound I-377] |
| 0 to 25 | NCCC1CCN(C(=O)c2cc3ccc(/C(N)=N\O)cc3n2Cc2ccc(-c3ccccc3)cc2)CC1 [Compound I-380] |
| 0 to 25 | NCCC(=O)Nc1cccc(Cn2c(C(=O)N3CCC(CCN)CC3)cc3ccc(/C(N)=N/O)cc32)c1 [Compound I-381] |
| 0 to 25 | NCCCC(=O)Nc1cccc(Cn2c(C(=O)N3CCC(CCN)CC3)cc3ccc(/C(N)=N/O)cc32)c1 [Compound I-382] |
| 0 to 25 | NCCC(=O)Nc1ccc(Cn2c(C(=O)N3CCC(CCN)CC3)cc3ccc(/C(N)=N/O)cc32)cc1 [Compound I-383] |
| 25 to 50 | NCCCC(=O)Nc1ccc(Cn2c(C(=O)N3CCC(CCN)CC3)cc3ccc(/C(N)=N/O)cc32)cc1 [Compound I-384] |
| 0 to 25 | CN(C)C(=O)c1ccc(Cn2c(C(=O)N3CCC(F)(F)C3)cc3ccc(C(=N)N)cc32)cc1 [Compound I-386] |
| 0 to 25 | N=C(N)c1ccc2cc(C(=O)N3CCC(F)(F)C3)n(Cc3ccc(C(=O)NC4CC4)cc3)c2c1 [Compound I-387] |
| 0 to 25 | N=C(N)c1ccc2cc(C(=O)N3CCC(F)CC3)n(Cc3ccc(C(=O)NC4CC4)cc3)c2c1 [Compound I-391] |
| 0 to 25 | N=C(N)c1ccc2cc(C(=O)N3CCC(F)CC3)n(Cc3ccc(C(=O)NCCN)cc3)c2c1 [Compound I-393] |
| 0 to 25 | N=C(N)c1ccc2cc(C(=O)NC3CCC(F)(F)CC3)n(Cc3ccc(NC(=O)CCN)cc3)c2c1 [I- s263] |
